In patent publication US20040009921A1, “Methods and compositions for the treatment of cancer” (Allergan, Inc., priority 2002, published 2004):

System: β-catenin-mediated gene transactivation (TCF/LEF reporter Topflash)
Assay: Topflash reporter gene assay in HEK293 cells and stable lines RBC, CAT
Type: cell-based, human
Method: Cultured cells were transfected with 100 ng of reporter gene Topflash® together with expression vectors indicated under each graph. […] (A) Data from HEK293 cells co-transfected with wild type or mutant β-catenin (200 ng) and RXRα (20 ng). (B) CAT, a stable cell line that overexpresses β-catenin (left panel). RBC, a stable cell line that overexpresses both RXRα and β-catenin. (C) SW480, a colorectal cancer cell line, was transfected with 100 ng of Topflash®. The amount of RXRα cotransfected was indicated below the X axis. Reporter activity on the Y axis is expressed as either Luciferase Unit or percentage of activity in cells transfected with Topflash® alone.
For transfection of the HEK293 cell line, cells were seeded at a density of 50,000 cells per well in 24-well plates coated with poly-D-Lysine (Becton Dickinson). After 24 hours, the luciferase-based reporter plasmids and expression vectors were cotransfected into cells using Fugene according to the manufacturer's instruction (Roche Applied Science). To monitor the efficiency of transfection, either 15 ng of phRG-TK Renilla or 100 ng of CMX-LacZ DNA were cotransfected. […] Harvested cells were lysed, and luciferase activity was measured as previously described (de Wet, J. R., Wood, K. V., DeLuca, M., Helinski, D. R., Subramani, S. (1987) Mol. Cell. Biol. 7, 725-737). In cells transfected with the LacZ control gene, β-galactosidase activity was measured by standard colorimetric assays. Renilla reniformis […] activity was determined using the Dual-Luciferase Reporter 100 Assay System (Promega Corporation, 2800 Woods Hollow Road, Madison Wis. USA 53711). The experimental reporter gene activity was normalized against either β-galactosidase or Renilla GFP activity. Values represent the mean +/− SEM of quadruplicate determinations.
To investigate whether RXR and its ligands affect β-catenin-mediated gene transactivation, the APC-positive human HEK293 cells were transfected with the reporter gene Topflash®. This reporter gene contains multiple copies of responsive elements for the DNA-binding transcription activators, TCF/LEF, upstream of the basic luciferase reporter gene construct tk-Luc. The tk-Luc portion of he reporter plasmid consists of a minimal gene promoter from HSV tk gene and a coding sequence for luciferase. Transactivation of this reporter by TCF/LEF can be affected by endogenous as well as overexpressed β-catenin, which interacts with TCF/LEF as a co-activator.

## CC(/C=C/[C@@H]1C[C@]1(C)c1ccc2c(c1)C(C)(C)CCC2(C)C)=C\C(=O)O [AGN 4204]
HEK293, endogenous β-catenin, 0.1 μM, 17 hours
  Topflash reporter activity from endogenous β-catenin: moderately reduced
HEK293, ΔNβ-catenin in the presence of RXRα
  ΔNβ-catenin mutant activity in transactivating Topflash: significantly impaired
HEK293 cotransfected with β-catenin and RXRα, 0.1 μM, 17 hours
  decrease in reporter activity: 90%
Stable line CAT overexpressing only β-catenin, 0.1 μM, 17 hours
  decrease in reporter activity: 30%
Stable line RBC expressing β-catenin and RXRα, 0.1 μM, 17 hours
  decrease in reporter activity: decrease in the reporter activity was also observed
